≈ marks a conversion by molar mass, not a printed value. Where two headings read alike, the source gives them in different places.
Key:
E. faecalis JH2-2 = assay: microbe, parasite or virus in culture; assay type: cell-based; conditions: Enterococcus faecalis, JH22
Experimental: (§1) Bacterial strains and growth conditions: All Gram-negative and Gram-positive bacterial strains (Supplementary Table S8) were cultured in Luria-Bertani (LB) or trypticase soy broth (TSB) agar plates, respectively, and incubated overnight at 37 °C unless specifically indicated. A single colony of the tested bacterial strains was inoculated into medium broth with shaking at 220 rpm for further experiments.
(§2) Minimal inhibitory concentrations: Antimicrobial susceptibility testing was performed by broth microdilution method for AMPs against Gram-positive and Gram-negative pathogens above mentioned, following the methods of document CLSI M100-ED34.[43] The MICs were defined as the lowest concentrations that inhibit visible growth of the tested bacteria. E. coli ATCC 25,922 and S. aureus ATCC 29,213 were served as quality controls.

E. faecalis SF23-1 = assay: microbe, parasite or virus in culture; assay type: cell-based; conditions: Enterococcus faecalis, SF231
Experimental: as §1, §2

S. aureus M147-2 = assay: microbe, parasite or virus in culture; assay type: cell-based; conditions: Staphylococcus aureus, M1472
Experimental: as §1, §2

S. agalactiae DL03 = assay: microbe, parasite or virus in culture; assay type: cell-based; conditions: Streptococcus agalactiae
Experimental: as §1, §2

E. faecium MC38 = assay: microbe, parasite or virus in culture; assay type: cell-based; conditions: Enterococcus faecium
Experimental: as §1, §2

S. aureus YZSA-21 = assay: microbe, parasite or virus in culture; assay type: cell-based; conditions: Staphylococcus aureus, YZSA21
Experimental: as §1, §2

S. aureus YZSA-15 = assay: microbe, parasite or virus in culture; assay type: cell-based; conditions: Staphylococcus aureus, YZSA15
Experimental: as §1, §2

S. pyogenes DL02 = assay: microbe, parasite or virus in culture; assay type: cell-based; conditions: Streptococcus pyogenes
Experimental: as §1, §2

E. faecalis J2 = assay: microbe, parasite or virus in culture; assay type: cell-based; conditions: Enterococcus faecalis
Experimental: as §1, §2

S. aureus M92-1 = assay: microbe, parasite or virus in culture; assay type: cell-based; conditions: Staphylococcus aureus, M921
Experimental: as §1, §2

S. aureus YZSA-24 = assay: microbe, parasite or virus in culture; assay type: cell-based; conditions: Staphylococcus aureus, YZSA24
Experimental: as §1, §2

E. faecalis ES01 = assay: microbe, parasite or virus in culture; assay type: cell-based; conditions: Enterococcus faecalis
Experimental: as §1, §2

E. faecium HFY01 = assay: microbe, parasite or virus in culture; assay type: cell-based; conditions: Enterococcus faecium
Experimental: as §1, §2

S. suis SH0918 = assay: microbe, parasite or virus in culture; assay type: cell-based; conditions: Streptococcus suis
Experimental: as §1, §2

E. faecium QF31 = assay: microbe, parasite or virus in culture; assay type: cell-based; conditions: Enterococcus faecium
Experimental: as §1, §2

S. enteritis S1 = assay: organism not typed; assay type: cell-based; conditions: Table 1; S. enteritis S1; broth microdilution; read-out: MIC
Experimental: as §1, §2

P. aeruginosa PAO1 = assay: microbe, parasite or virus in culture; assay type: cell-based; conditions: Pseudomonas aeruginosa; Table 1; P. aeruginosa PAO1; broth microdilution; read-out: MIC
Experimental: as §1, §2

P. aeruginosa PA14 = assay: microbe, parasite or virus in culture; assay type: cell-based; conditions: Pseudomonas aeruginosa
Experimental: as §1, §2

A. baumannii AB11 = assay: microbe, parasite or virus in culture; assay type: cell-based; conditions: Acinetobacter baumannii
Experimental: as §1, §2

K. pneumoniae 9-1 = assay: microbe, parasite or virus in culture; assay type: cell-based; conditions: Klebsiella pneumoniae, 91; Table 1; K. pneumoniae 9-1; broth microdilution; read-out: MIC
Experimental: as §1, §2

A. baumannii 7979 = assay: microbe, parasite or virus in culture; assay type: cell-based; conditions: Acinetobacter baumannii; Table 1; A. baumannii 7979; broth microdilution; read-out: MIC
Experimental: as §1, §2

E. coli ATCC 25922 = assay: microbe, parasite or virus in culture; assay type: cell-based; conditions: Escherichia coli, ATCC25922
Experimental: as §1, §2

S. suis P1/7 = assay: microbe, parasite or virus in culture; conditions: Streptococcus suis, P1/7
Experimental: as §1
as §2, with “bacteria.” for “bacteria. E. coli ATCC 25,922 and S. aureus ATCC 29,213 were served as quality controls.”

S. aureus ATCC 29213 = assay: microbe, parasite or virus in culture; assay type: cell-based; conditions: Staphylococcus aureus, ATCC29213
[1] = Table 1, E. faecalis JH2-2, broth microdilution, read-out: MIC
[2] = Table 1, E. faecalis SF23-1, ermB, tetL, cfr, broth microdilution, read-out: MIC
[3] = Table 1, S. aureus M147-2, ermB, tetL, cfr, broth microdilution, read-out: MIC
[4] = Table 1, S. agalactiae DL03, ermB, broth microdilution, read-out: MIC
[5] = Table 1, E. faecium MC38, ermB, optrA, broth microdilution, read-out: MIC
[6] = Table 1, S. aureus YZSA-21, ermC, broth microdilution, read-out: MIC
[7] = Table 1, S. aureus YZSA-15, ermC, vanB, broth microdilution, read-out: MIC
[8] = Table 1, S. pyogenes DL02, ermB, broth microdilution, read-out: MIC
[9] = Table 1, E. faecalis J2, ermB, optrA, broth microdilution, read-out: MIC
[10] = Table 1, S. aureus M92-1, ermB, tetL, optrA, broth microdilution, read-out: MIC
[11] = Table 1, S. aureus YZSA-24, ermC, mecA, broth microdilution, read-out: MIC
[12] = Table 1, E. faecalis ES01, ermB, vanB, broth microdilution, read-out: MIC
[13] = Table 1, E. faecium HFY01, broth microdilution, read-out: MIC
[14] = Table 1, S. suis SH0918, ermB, tetO, optrA, broth microdilution, read-out: MIC
[15] = Table 1, E. faecium QF31, ermB, cfr, broth microdilution, read-out: MIC
[16] = Table 1, P. aeruginosa PA14, broth microdilution, read-out: MIC
[17] = Table 1, A. baumannii AB11, broth microdilution, read-out: MIC
[18] = Table 1, E. coli ATCC 25922, broth microdilution, read-out: MIC

MIC (S. enteritis S1) | MIC (P. aeruginosa PAO1) | MIC (K. pneumoniae 9-1) | MIC (A. baumannii 7979) | Structure (SMILES) | MIC (E. faecalis JH2-2; [1]) | MIC (E. faecalis SF23-1; [2]) | MIC (S. aureus M147-2; [3]) | MIC (S. agalactiae DL03; [4]) | MIC (E. faecium MC38; [5]) | MIC (S. aureus YZSA-21; [6]) | MIC (S. aureus YZSA-15; [7]) | MIC (S. pyogenes DL02; [8]) | MIC (E. faecalis J2; [9]) | MIC (S. aureus M92-1; [10]) | MIC (S. aureus YZSA-24; [11]) | MIC (E. faecalis ES01; [12]) | MIC (E. faecium HFY01; [13]) | MIC (S. suis SH0918; [14]) | MIC (E. faecium QF31; [15]) | MIC (S. suis P1/7) | further results
0.25 mg/L (≈ 0.652 µM) | 0.5 mg/L (≈ 1.3 µM) | 4 mg/L (≈ 10.4 µM) | > 64 mg/L | C[C@@H](O)[C@H]1C(=O)N2C(C(=O)O)=C(S[C@@H]3CN[C@H](C(=O)N(C)C)C3)[C@H](C)[C@H]12 [MEM, Meropenem] | – | – | – | – | – | – | – | – | – | – | – | – | – | – | – | – | MIC (P. aeruginosa PA14; [16]): 0.5 mg/L (≈ 1.3 µM); MIC (A. baumannii AB11; [17]): < 0.06 mg/L; MIC (E. coli ATCC 25922; [18]): 0.25 mg/L (≈ 0.652 µM)
2 mg/L (≈ 4.59 µM) | 2 mg/L (≈ 4.59 µM) | > 64 mg/L | > 64 mg/L | C[C@H]1[C@H](NC(=O)/C(=N\OC(C)(C)C(=O)O)c2csc(N)n2)C(=O)N1S(=O)(=O)O [ATM, Aztreonam] | – | – | – | – | – | – | – | – | – | – | – | – | – | – | – | – | MIC (P. aeruginosa PA14; [16]): 4 mg/L (≈ 9.19 µM); MIC (A. baumannii AB11; [17]): > 64 mg/L; MIC (E. coli ATCC 25922; [18]): 0.25 mg/L (≈ 0.574 µM)

The next lines start with the compound.

Structure (SMILES) | MIC (S. enteritis S1) | MIC (P. aeruginosa PAO1) | MIC (K. pneumoniae 9-1) | MIC (A. baumannii 7979) | MIC (E. faecalis JH2-2; [1]) | MIC (E. faecalis SF23-1; [2]) | MIC (S. aureus M147-2; [3]) | MIC (S. agalactiae DL03; [4]) | MIC (E. faecium MC38; [5]) | MIC (S. aureus YZSA-21; [6]) | MIC (S. aureus YZSA-15; [7]) | MIC (S. pyogenes DL02; [8]) | MIC (E. faecalis J2; [9]) | MIC (S. aureus M92-1; [10]) | MIC (S. aureus YZSA-24; [11]) | MIC (E. faecalis ES01; [12]) | MIC (E. faecium HFY01; [13]) | MIC (S. suis SH0918; [14]) | MIC (E. faecium QF31; [15]) | MIC (S. suis P1/7) | further results
O=C(O)c1cn(C2CC2)c2cc(N3CCNCC3)c(F)cc2c1=O [CIP, ciprofloxacin] | – | – | – | – | 0.5 mg/L (≈ 1.51 µM) | 16 mg/L (≈ 48.3 µM) | 32 mg/L (≈ 96.6 µM) | 16 mg/L (≈ 48.3 µM) | 8 mg/L (≈ 24.1 µM) | 0.5 mg/L (≈ 1.51 µM) | 0.25 mg/L (≈ 0.754 µM) | 1 mg/L (≈ 3.02 µM) | 8 mg/L (≈ 24.1 µM) | 16 mg/L (≈ 48.3 µM) | 4 mg/L (≈ 12.1 µM) | 2 mg/L (≈ 6.04 µM) | 1 mg/L (≈ 3.02 µM) | 16 mg/L (≈ 48.3 µM) | 2 mg/L (≈ 6.04 µM) | – | –
C[C@H]1COc2c(N3CCN(C)CC3)c(F)cc3c(=O)c(C(=O)O)cn1c23 [LVX, Levofloxacin] | 0.5 mg/L (≈ 1.38 µM) | 0.5 mg/L (≈ 1.38 µM) | > 64 mg/L | > 64 mg/L | – | – | – | – | – | – | – | – | – | – | – | – | – | – | – | – | MIC (P. aeruginosa PA14; PA14): 0.125 mg/L (≈ 0.346 µM); MIC (A. baumannii AB11; AB11): 0.125 mg/L (≈ 0.346 µM); MIC (E. coli ATCC 25922): 0.125 mg/L (≈ 0.346 µM)
CN[C@H](CC(C)C)C(=O)N[C@H]1C(=O)N[C@@H](CC(N)=O)C(=O)N[C@H]2C(=O)N[C@H]3C(=O)N[C@H](C(=O)N[C@H](C(=O)O)c4cc(O)cc(O)c4-c4cc3ccc4O)[C@H](O)c3ccc(c(Cl)c3)Oc3cc2cc(c3O[C@@H]2O[C@H](CO)[C@@H](O)[C@H](O)[C@H]2O[C@H]2C[C@](C)(N)[C@H](O)[C@H](C)O2)Oc2ccc(cc2Cl)[C@H]1O [VAN, vancomycin] | – | – | – | – | – | – | – | – | – | – | – | – | – | – | – | – | – | – | – | < 0.06 mg/L | MIC (E. faecalis JH2-2): 2 mg/L (≈ 1.38 µM); MIC (E. faecalis SF23-1): 2 mg/L (≈ 1.38 µM); MIC (S. aureus M147-2): 0.5 mg/L (≈ 0.345 µM); MIC (S. agalactiae DL03; DL03): 0.125 mg/L (≈ 0.0863 µM); MIC (E. faecium MC38; MC38): 2 mg/L (≈ 1.38 µM); MIC (S. aureus YZSA-21): 1 mg/L (≈ 0.69 µM); MIC (S. aureus YZSA-15): 16 mg/L (≈ 11 µM); MIC (S. pyogenes DL02; DL02): < 0.06 mg/L; MIC (E. faecalis J2; J2): 2 mg/L (≈ 1.38 µM); MIC (S. aureus M92-1): 1 mg/L (≈ 0.69 µM); MIC (S. aureus YZSA-24): < 0.06 mg/L; MIC (E. faecalis ES01; ES01): 16 mg/L (≈ 11 µM); MIC (E. faecium HFY01; HFY01): 0.5 mg/L (≈ 0.345 µM); MIC (S. suis SH0918; SH0918): < 0.06 mg/L; MIC (E. faecium QF31; QF31): 2 mg/L (≈ 1.38 µM); MIC (S. aureus ATCC 29213): 1 mg/L (≈ 0.69 µM)
CC[C@H]1OC(=O)[C@H](C)[C@@H](O[C@H]2C[C@@](C)(OC)[C@@H](O)[C@H](C)O2)[C@H](C)[C@@H](O[C@@H]2O[C@H](C)C[C@H](N(C)C)[C@H]2O)[C@](C)(O)C[C@@H](C)C(=O)[C@H](C)[C@@H](O)[C@]1(C)O [ERY, Erythromycin] | – | – | – | – | 0.25 mg/L (≈ 0.341 µM) | > 64 mg/L | > 64 mg/L | > 64 mg/L | > 64 mg/L | > 64 mg/L | > 64 mg/L | > 64 mg/L | > 64 mg/L | > 64 mg/L | > 63 mg/L | > 64 mg/L | 2 mg/L (≈ 2.73 µM) | > 64 mg/L | > 64 mg/L | 0.125 mg/L (≈ 0.17 µM) | MIC (S. aureus ATCC 29213; Table 1, S. aureus ATCC 29213, broth microdilution, CLSI M100-ED34, read-out: MIC): 1 mg/L (≈ 1.36 µM)

From publication PMC12203862, “BroadAMP-GPT: AI-Driven generation of broad-spectrum antimicrobial peptides for combating multidrug-resistant ESKAPE pathogens” (Gut Microbes, 2025)
